Measured values: paper PMC7269146, “Jingzhaotoxin-X, a gating modifier of Kv4.2 and Kv4.3 potassium channels purified from the venom of the Chinese tarantula Chilobrachys jingzhao” (The Journal of Venomous Animals and Toxins Including …, 2020)
Where a SMILES comes first, the peptide text is derived from it. Bridges are numbered along the chain shown (N, C = ends).

System: Kv1.3
Test: microelectrode voltage-clamp, Xenopus laevis oocytes, Kv1.3
Assay type: cell-based
Conditions: 10 μM, 300-ms depolarization to +20 mV from -90 mV, pH 7.5, 19-23°C, n = 3
Protocol: Briefly, plasmids were linearized, and transcription was carried out according to the standardized protocol. Afterwards, the capped cRNAs that encoded the related ion channels were prepared. To conduct transcription in vitro, firstly, NotL was utilized to linearize plasmids pCI that contained both Kv1.1 (Accession: NM_010595.3) and Kv2.1 (Accession: AF026005.1), whereas SphI was adopted to linearize plasmid PcDNA3 containing Kv1.2 (Accession: NM_012970.3) gene. […] Thereafter, the linearized plasmids were used as the templates to synthesize cRNAs in vitro using the large-scale T7 mMESSAGE mMACHINE transcription kit (Ambion, USA).
A mature female X. laevis was placed on the ice for anesthesia, and then the Xenopus laevis oocytes at stage IV-VI were extracted. Subsequently, those extracted oocytes were treated by collagenase (1 mg/mL) contained within the calcium-depleted ND96 solution (containing 96 mM NaCl, 10 mM HEPES, 1 mM MgCl2, and 2 mM KCl) for defolliculation. […]
Firstly, the effects of JZTX-X on the isoforms of potassium channels (including Kv1.1-1.3, Kv2.1, as well as Kv4.2-4.3) contained within the X. laevis oocytes were investigated through the microelectrode voltage-clamp approach. […] We also determined the effects of JZTX-X on Ito potassium channels in rat DRG neurons; those current amplitudes were inhibited by 54.4±6.8% when 500 nM JZTX-X was applied (Fig. 3K, n = 5).

## CC(C)C[C@@H]1NC(=O)[C@H](CCCCN)NC(=O)[C@H](Cc2ccc(O)cc2)NC(=O)[C@@H]2CSSC[C@@H]3NC(=O)[C@H](Cc4ccc(O)cc4)NC(=O)[C@H](Cc4ccccc4)NC(=O)CNC(=O)[C@H](C)NC(=O)[C@H](CSSC[C@H](NC(=O)[C@@H](N)CC(C)C)C(=O)N[C@@H](CO)C(=O)N[C@@H](CCCNC(=N)N)C(=O)N[C@@H](CCC(=O)O)C(=O)NCC(=O)N[C@@H](CCC(=O)O)C(=O)N[C@@H](Cc4ccccc4)C(=O)N2)NC(=O)[C@H](CSSC[C@@H](C(=O)N[C@@H](Cc2ccc(O)cc2)C(=O)N[C@@H](CCCNC(=N)N)C(=O)N[C@@H](CC(N)=O)C(=O)O)NC(=O)[C@H](Cc2c[nH]cn2)NC(=O)[C@H](CC(C)C)NC(=O)[C@H](C(C)C)NC(=O)[C@H](Cc2ccccc2)NC(=O)[C@H](C)NC(=O)[C@H](CCCCN)NC3=O)NC(=O)[C@H](CCCCN)NC(=O)[C@H](CCCNC(=N)N)NC1=O [JZTX-X, Jingzhaotoxin-X] (H-LCSREGEFCYKLRKCCAGFYCKAFVLHCYRN-OH; disulfide 2-16, 9-21, 15-28; N-terminus assumed)
  inhibition of Kv1.3 current: less than 5%
